Peptide text beside a SMILES is read from it. * marks the point of attachment. Fmoc = O=C(OCC1c2ccccc2-c2ccccc21)*; tBu = CC(C)(C)*
Assay: Physical stability of solid form on isolation/drying (crystallization screen)
Format: physicochemical
Conditions: wet solids from 1:1 v/v ACN/MTBE slurry, upon isolation/drying
Protocol: A crystallization screen was performed on Fmoc-G-P-S(tBu)-S(tBu)-G-OH (SEQ ID NO: 19) free form using various solvents and solvent mixtures. Different crystallization methods were employed including solvent-based techniques such as slurry, cooling, ambient and sub-ambient temperatures holding, solvent/anti-solvent addition, or combination of techniques, and non-solvent-based techniques such as heat stress.
Three solid forms were identified: Fmoc-G-P-S(tBu)-S(tBu)-G-OH (SEQ ID NO: 19) Form A, Fmoc-G-P-S(tBu)-S(tBu)-G-OH (SEQ ID NO: 19) Form C, and Fmoc-G-P-S(tBu)-S(tBu)-G-OH (SEQ ID NO: 19) Form D. Form A was a solvated form produced from 1-propanol (1-PrOH) or mixtures containing 1-PrOH (such as 1-PrOH/heptane). Form D is a solvated form produced from acetonitrile (ACN) or mixtures containing ACN (such as ACN/MTBE). Form C is a conversion product when Form D is isolated and dried.
The suspension was seeded with Fmoc-G-P-S(tBu)-S(tBu)-G-OH (SEQ ID NO: 19) Form C and then left at ambient conditions to continue stirring for 2 days.

For `CC(C)(C)OC[C@H](NC(=O)[C@H](COC(C)(C)C)NC(=O)[C@@H]1CCCN1C(=O)CNC(=O)OCC1c2ccccc2-c2ccccc21)C(=O)NCC(=O)O` [Fmoc-Gly-Pro-Ser(tBu)-Ser(tBu)-Gly-OH] (Fmoc-GPS(tBu)S(tBu)G-OH), the “physical stability of solid form” value was “physically not stable”.

Reference: patent publication US12304938B2, “Processes and intermediates for preparing tirzepatide” (Eli Lilly and Company, priority 2022, dated 2025)
